In ChEMBL document CHEMBL4177733, “(-)-9'-O-(α-l-Rhamnopyranosyl)lyoniresinol from Lespedeza cuneata suppresses ovarian cancer cell proliferation through induction of apoptosis” (Bioorg Med Chem Lett, 2018) one finds Activity and IC50 data, which are given here for nine molecules.

The structures appear in SMILES notation. Calls of active or inactive are those of the source. The calls are words filed in the database; no cut-off is given here.

The test system of assay [1] is A2780. In words: Cytotoxicity against human A2780 cells assessed as reduction in cell viability at 5 to 100 uM incubated for 24 hrs by MTT assay. It counts as functional, cell-based.
Assay [2] has as its system A2780. In words: Induction of apoptosis in human A2780 cells assessed as caspase-3 activation at 50 to 100 uM incubated for 24 hrs by Western blot. The class given is functional, cell-based. For orientation: A western blot detects proteins with antibodies after separation by electrophoresis.
Assay [3] relates to A2780. Briefly: Induction of apoptosis in human A2780 cells assessed as induction of cell blebbing at 50 to 100 uM incubated for 24 hrs by Hoechst 33342 staining based fluorescence microscopy. The class given is functional.
Assay [4] has as its system HeLa. Briefly: Cytotoxicity against human HeLa cells assessed as reduction in cell viability at 5 to 100 uM incubated for 24 hrs by MTT assay. The class given is functional, cell-based. In general terms: Formazan colour is commonly taken as a measure of viable cells.
Assay [5] relates to A2780. In words: Induction of apoptosis in human A2780 cells assessed as caspase-9 activation at 50 to 100 uM incubated for 24 hrs by Western blot. It counts as functional, cell-based.
The subject of assay [6] is A2780. In words: Induction of apoptosis in human A2780 cells assessed as induction of cell shrinkage at 50 to 100 uM incubated for 24 hrs by Hoechst 33342 staining based fluorescence microscopy. It counts as functional.
The test system of assay [7] is A2780. Briefly: Induction of apoptosis in human A2780 cells assessed as increase in BAX protein level at 50 to 100 uM incubated for 24 hrs by Western blot. The class given is functional, cell-based.
Assay [8] relates to A2780. In words: Induction of apoptosis in human A2780 cells assessed as induction of cell condensation at 50 to 100 uM incubated for 24 hrs by Hoechst 33342 staining based fluorescence microscopy. The class given is functional.
In assay [9] the test system is A2780. Briefly: Induction of apoptosis in human A2780 cells assessed as caspase-8 activation at 50 to 100 uM incubated for 24 hrs by Western blot. The class given is functional, cell-based.
The test system of assay [10] is A2780. In words: Induction of apoptosis in human A2780 cells assessed as PARP cleavage at 50 to 100 uM incubated for 24 hrs by Western blot. It counts as functional, cell-based.
Assay [11] has as its system MCF7. In words: Cytotoxicity against human MCF7 cells assessed as reduction in cell viability at 5 to 100 uM incubated for 24 hrs by MTT assay. It counts as functional, cell-based.
Assay [12] deals with LLC-PK1. In words: Cytotoxicity against LLC-PK1 cells assessed as reduction in cell viability at 5 to 100 uM incubated for 24 hrs by MTT assay. The class given is cell-based. The conditions noted are these: Sus scrofa, LLC-PK1, 24 h.
Assay [13] relates to A2780. Briefly: Induction of apoptosis in human A2780 cells assessed as BID cleavage at 50 to 100 uM incubated for 24 hrs by Western blot. The class given is functional, cell-based.
Assay [14] relates to A2780. Briefly: Induction of apoptosis in human A2780 cells assessed as reduction in Bcl-2 protein level at 50 to 100 uM incubated for 24 hrs by Western blot. The class given is functional, cell-based.

Turning to `COc1cc(C(=O)O)cc(OC)c1O`, the outcome in assay [1] was Active.

Regarding `COc1cc2c(cc1O)[C@H](c1cc(OC)c(O)c(OC)c1)[C@@H](CO[C@@H]1O[C@@H](C)[C@H](O)[C@@H](O)[C@H]1O)[C@H](CO)C2`, the outcome in assay [1] was inactive.

For `COc1cc([C@@H]2c3cc(O)c(OC)cc3C[C@H](CO)[C@H]2CO[C@@H]2O[C@@H](C)[C@H](O)[C@@H](O)[C@H]2O)ccc1O`, in [1], the outcome was inactive.

In the case of `O=c1c(O)c(-c2ccc(O)cc2)oc2cc(O[C@@H]3O[C@H](CO)[C@@H](O)[C@H](O)[C@H]3O)cc(O)c12`, the outcome in [1] was inactive.

For `O=c1cc(-c2ccc(O)c(O)c2)oc2c([C@@H]3O[C@H](CO)[C@@H](O)[C@H](O)[C@H]3O)c(O)cc(O)c12`, the outcome in [1] was inactive.

As for `COc1cc(C(=O)O)ccc1O`, the result in [1] was inactive.

Regarding `COc1cc([C@H]2c3cc(O)c(OC)cc3C[C@@H](CO)[C@@H]2CO[C@@H]2O[C@@H](C)[C@H](O)[C@@H](O)[C@H]2O)ccc1O`, the result in assay [1] was inactive.

For the molecule `O=c1c(O[C@@H]2O[C@H](CO)[C@@H](O)[C@H](O)[C@H]2O)c(-c2ccc(O)cc2)oc2cc(O)cc(O)c12`, the result in assay [1] was inactive.

What is called IC50 is the concentration needed to halve the response being measured. For the molecule `COc1cc([C@@H]2c3c(cc(OC)c(O)c3OC)C[C@H](CO)[C@H]2CO[C@@H]2O[C@@H](C)[C@H](O)[C@@H](O)[C@H]2O)cc(OC)c1O`, the outcome in assay [2], in assay [3], in assay [6], in [7], in [8] and in [9] was Active. The result in assay [10], in [13] and in assay [14] was Active. The Activity result in assay [1] was “Dose-dependent effect”. Further, the IC50 was 35.4 µM in [1] (A2780, 24 h) and more than 100 µM in [12]. Further, the outcome in assay [4], in assay [5] and in [11] was inactive.
